Results on one molecule are retold here after patent US20240033207A1, “TOPICALLY ADMINISTRABLE LYSATE (LY) OF DEDIFFERENTIATED CELLS OF THE PLANT HELICHRYSUM STOECHAS FOR ELIMINATING OR REDUCING INFLAMMATION OF THE SKIN” (SOCIETE D'EXPLOITATION DE PRODUITS POUR LES INDUSTRIES …, priority 2020, published 2024).

The test relates to normal human keratinocytes (NHEK) cocultured with dendritic cells (DC). The test can be described thus: Coculture of primary human keratinocytes with dendritic cells, PMA/A23187/PUFA stimulation, lipid mediators in supernatant by LC-MS/MS. The class given is cell-based. From the text: Dendritic cells form part of the cells of the cutaneous immune system, and they are involved in the early inflammatory response. This model is targeted at mimicking the interactions which take place naturally in the skin between the keratinocytes and the cells of the immune system, and it makes it possible to evaluate the impact of active principles on the processes of resolution of inflammation. Briefly, normal human keratinocytes (NHEK) are inoculated in inserts and cultured without contact with dendritic cells (DC) inoculated in the bottom of the wells. The cells are pretreated with the composition CA or glycerol. After 20 hours of incubation, the inflammatory stimulus (mixture of phorbol 12-myristate 13-acetate (PMA) and of calcium ionophore A23187), polyunsaturated fatty acids (PUFAs, lipid precursors of inflammation mediators, eicosanoids) and the compounds (composition CA or glycerol) were again added and incubated for 1 hour. Subsequently, the culture supernatants were collected for analysis of lipid mediators. The experiments were replicated three times. […] The amounts of 5-HETE, LTB4, 12-HETE, 15-HETE and 17-HDOHE are measured by the use of an LC-MS/MS method using a UPLC system (Agilent LC1290 Infinity) coupled to an Agilent 6490 triple quadrupole mass spectrometer (Agilent Technologies) equipped with electrospray ionization operating in negative mode, and are expressed in picograms per culture well (pg/well). The values obtained were expressed as mean+/-sem [standard error of the mean=standard deviation/square root (number of values)]. For each condition, the percentages of activation were calculated as follows: % activation=[mean (condition)]/[mean (stimulated cells)]×100-100. • stimulated cells: PMA/A23187/PUFA-treated cells in the case where the condition studied is the treatment with glycerol. • stimulated cells: cells treated with PMA/A23187/PUFA+0.1% DMSO in the case where the condition studied is the treatment with the composition CA. The statistical analysis was carried out by a Student's test and a significance threshold was set at 5%, the conditions being compared in pairs. A difference between the effectiveness of two products was considered: • significant if p<0.05; • “at the limit of significance” if 0.05≤p<0.1; • and not significant if p>0.1.

The mark [1] stands for this setting: 0.01%, PMA/A23187/PUFA-stimulated coculture supernatant, proresolving mediator.
Setting [2] is: 0.01%, vs respective stimulated cells (PMA/A23187/PUFA for glycerol, + 0.1% DMSO for composition CA).
Where [3] appears, read: 0.05%, PMA/A23187/PUFA-stimulated NHEK/DC coculture supernatant, proinflammatory mediator.
Setting [4] is: 0.05%, vs PMA/A23187/PUFA-treated cells.

Each structure is given as a SMILES string. Marks after values point to notes of the source that are not given here.

For the molecule `OCC(O)CO` [Glycerol], under setting [1], the “12-HETE (pg/well) Mean +/− SEM” value was 15 +/− 1 pg/well, the “15-HETE (pg/well) Mean +/− SEM” value is given as 273 +/− 26 pg/well and the “17-HDOHE (pg/well) Mean +/− SEM” value is reported as 16654 +/− 1409 pg/well. Also, under setting [2], the 12-HETE % activation was 58%^15, the 15-HETE % activation turned out to be 63%* and the 17-HDOHE % activation result is “+13%”. Moreover, under setting [3], the “5-HETE (pg/well) Mean +/− SEM” value is 1152 +/− 201 pg/well and the “LTB4 (pg/well) Mean +/− SEM” value is reported as 400 +/− 38 pg/well. In addition, under setting [4], the 5-HETE % activation is on record as 144%* and the LTB4 % activation came out at 88%*.
